Calls of active or inactive are those of the source. The calls are words filed in the database; no cut-off is given here.
Key:
[1] = Antiproliferative activity against human HCT116 cells assessed as inhibition of cell proliferation by MTT assay; type: functional, cell-based; conditions: HCT-116
[2] = Antiproliferative activity against human PC3 cells assessed as inhibition of cell proliferation by MTT assay; type: functional, cell-based; conditions: PC-3
HepG2 = assay: Antiproliferative activity against human HepG2 cells assessed as inhibition of cell proliferation by MTT assay; type: functional, cell-based
[3] = Antiproliferative activity against human SKOV3 cells assessed as inhibition of cell proliferation by MTT assay; type: functional, cell-based; conditions: SK-OV-3
[4] = Antiproliferative activity against human BGC823 cells assessed as inhibition of cell proliferation at 10 uM by MTT assay; type: functional; conditions: BGC-823
A549 = assay: Antiproliferative activity against human A549 cells assessed as inhibition of cell proliferation at 10 uM by MTT assay; type: functional
Jurkat = assay: Antiproliferative activity against human Jurkat cells assessed as inhibition of cell proliferation at 10 uM by MTT assay; type: functional
[5] = Antiproliferative activity against HEK293T cells assessed as inhibition of cell proliferation at 10 uM by MTT assay; type: cell-based, HEK-293T; conditions: human
[6] = target: T1, Tubulin alpha (Homo sapiens) (UniProt P0DPH7+P68366+Q71U36+P68363+Q9BQE3+Q6PEY2+A6NHL2+Q9NY65); assay: Inhibition of tubulin alpha in human LoVo cells assessed as effect on microtubule spindles at 20 nM after 24 hrs; type: cell-based
[7] = target: T1, Tubulin alpha (Homo sapiens); assay: Inhibition of tubulin alpha in human LoVo cells assessed as effect on microtubule spindles at 100 nM after 24 hrs; type: cell-based
[8] = target: T1, Tubulin alpha (Homo sapiens); assay: Inhibition of tubulin alpha in human LoVo cells assessed as effect on tubulin intensity level at 20 nM; type: cell-based
[9] = target: T1, Tubulin alpha (Homo sapiens); assay: Inhibition of tubulin alpha in human LoVo cells assessed as effect on tubulin intensity level at 100 nM; type: cell-based

| Structure (SMILES) | IC50 [1] [nM] | IC50 [2] [nM] | IC50 (HepG2) [nM] | IC50 [3] [nM] | inhibition at 10 µM [4] [%] | inhibition at 10 µM (A549) [%] | inhibition at 10 µM (Jurkat) [%] | inhibition at 10 µM [5] [%] | inhibition [6] | inhibition [7] | inhibition [8] | inhibition [9] |
| --- | --- | --- | --- | --- | --- | --- | --- | --- | --- | --- | --- | --- |
| O=S(=O)(c1ccc(-c2cnc(C3CC3)o2)cc1)N1CCc2ccc(Cl)cc21 | 255 | 138 | 248 | 144 | 87.4 | 63.6 | 95.5 | 71.9 | – | – | – | – |
| O=S(=O)(c1ccc(-c2nnc(C3CC3)o2)cc1)N1CCc2ccccc21 | – | – | – | – | 27.7 | 63.7 | 31.7 | -13.8 | – | – | – | – |
| O=S(=O)(c1ccc(-c2cnc(C3CC3)s2)cc1)N1CCc2ccccc21 | – | – | – | – | 38.5 | -10.1 | 29.8 | -15.4 | – | – | – | – |
| O=S(=O)(c1ccc(-c2cnc(C3CC3)o2)cc1F)N1CCc2ccccc21 | 168 | – | 18700 | 139 | – | – | – | – | – | – | – | – |
| N#Cc1ccc2c(c1)CCN2S(=O)(=O)c1ccc(-c2cnc(C3CC3)o2)cc1 | – | – | – | – | 29.6 | 28.4 | 15.8 | 37.4 | – | – | – | – |
| Cc1ccc2c(c1)CCN2S(=O)(=O)c1ccc(-c2cnc(C3CC3)o2)cc1 | 233 | 189 | 295 | 201 | 79.1 | 63.4 | 91.1 | 74.7 | – | – | – | – |
| CCc1ncc(-c2ccc(S(=O)(=O)N3CCc4ccccc43)cc2)o1 | 309 | – | > 100000 | 154 | – | – | – | – | – | – | – | – |
| O=S(=O)(c1ccc(-c2cnc(C3CC3)o2)cc1)N1CCc2ccccc21 | 105 | 62 | 58 | 55 | – | – | – | – | Active | Active | Active | Active |
| O=S(=O)(c1ccc(-c2cnc(C3CC3)o2)cc1)n1ccc2ccccc21 | – | – | – | – | 37.9 | 77.6 | 13.9 | 10.9 | – | – | – | – |
| O=[N+]([O-])c1ccc2c(c1)CCN2S(=O)(=O)c1ccc(-c2cnc(C3CC3)o2)cc1 | 1190 | 1920 | 1650 | 1300 | 87.5 | 73.1 | 92.4 | 48.4 | – | – | – | – |
| O=[N+]([O-])c1ccc2c(c1)N(S(=O)(=O)c1ccc(-c3cnc(C4CC4)o3)cc1)CC2 | 181 | 14 | 273 | 114 | 97.7 | 50.3 | 96.7 | 77.8 | – | – | – | – |
| CC1Cc2ccccc2N1S(=O)(=O)c1ccc(-c2cnc(C3CC3)o2)cc1 (stereo unspecified) | 14400 | 20500 | 16800 | 12400 | 81.8 | 52.4 | 89.9 | 61.3 | – | – | – | – |
| C=Cc1ncc(-c2ccc(S(=O)(=O)N3CCc4ccccc43)cc2)o1 | 1330 | – | 25800 | 1130 | – | – | – | – | – | – | – | – |
| O=c1[nH]n(S(=O)(=O)c2ccc(-c3cnc(C4CC4)o3)cc2)c2ccccc12 | 812 | 1460 | 1010 | 474 | 83.7 | 66.5 | 94.7 | 80.9 | – | – | – | – |
| O=S(=O)(c1ccc(-c2cnc(C3CC3)o2)cc1)N1CCCc2ccccc21 | – | – | – | – | – | – | – | – | Active | Active | Active | Active |
| O=S(=O)(c1ccc(-c2cnc(C3CC3)o2)cc1)N1CCc2cc(F)ccc21 | – | – | – | – | 18.3 | 36.1 | 24.3 | 25.7 | – | – | – | – |
| COc1ccc2c(c1)CCN2S(=O)(=O)c1ccc(-c2cnc(C3CC3)o2)cc1 | 112 | 82 | 55 | 39 | – | – | – | – | Active | Active | Active | Active |
| O=S(=O)(c1ccc(-c2cnc(C3CC3)o2)cc1)N1CCCCC1 | > 100000 | > 100000 | > 100000 | > 100000 | – | – | – | – | – | – | – | – |
| O=S(=O)(c1ccc(-c2cnc(C3CC3)o2)cc1)N1CC2(CCCCC2)c2ccccc21 | 6130 | 6580 | 13600 | 5200 | 84.1 | 58.4 | 94.8 | 76 | – | – | – | – |
| O=S(=O)(c1ccc(-c2cnc(C3CC3)o2)cc1Cl)N1CCc2ccccc21 | 422 | – | 2180 | 220 | – | – | – | – | – | – | – | – |
| CS(=O)(=O)c1ccc2c(c1)CCN2S(=O)(=O)c1ccc(-c2cnc(C3CC3)o2)cc1 | – | – | – | – | 28.3 | 4.14 | 13 | 6.54 | – | – | – | – |

From ChEMBL document CHEMBL3352147, “Synthesis and structure-activity relationship of 4-azaheterocycle benzenesulfonamide derivatives as new microtubule-targeting agents” (Bioorg Med Chem Lett, 2014)
